Values belong to the compound of their own block, whether it stands above or below them. Calls of active or inactive are those of the source. No cut-off for these calls is given here.
Assays:
[1] = tested on: NCI-H929; assay: Anti-proliferative activity against human NCI-H929 cells assessed as inhibition cell growth at 5 uM incubated for 72 hrs by CCK-8 assay; format: functional, cell-based
[2] = tested on: ARP-1; assay: Anti-proliferative activity against human ARP-1 cells assessed as inhibition cell growth at 5 uM incubated for 72 hrs by CCK-8 assay; format: functional, cell-based
[3] = Anti-proliferative activity against human ARP-1cells assessed as cell growth inhibition incubated for 72 hrs by CCK-8 assay; conditions: ARP-1, 72 h
[4] = tested on: NCI-H929; assay: Anti-proliferative activity against human NCI-H929 cells assessed as cell growth inhibition incubated for 72 hrs by CCK-8 assay; conditions: NCI-H929, 72 h
[5] = tested on: ARP-1; assay: Anti-proliferative activity against human ARP-1 cells assessed as inhibition cell growth incubated for 72 hrs by CCK-8 assay; format: functional, cell-based
[6] = tested on: NCI-H929; assay: Anti-proliferative activity against human NCI-H929 cells assessed as inhibition cell growth incubated for 72 hrs by CCK-8 assay; format: functional, cell-based
[7] = Toxicity in BALB/c mouse xenografted with human NCI-H929 cells assessed as effect on body weight at 50 mg/kg, sc administrated every other day for 13 days; format: organism-based; conditions: in vivo, 312 h, time 13 day
[8] = tested on: NCI-H929; assay: Antitumor activity against human NCI-H929 cells xenografted in BALB/C nude mouse model assessed as reduction in tumor growth at 50 mg/kg, sc administrated every other day for 13 days; format: functional, organism-based; conditions: time 13.0 day
[9] = Anti-proliferative activity against human ARP-1 cells assessed as inhibition cell growth at 5 uM incubated for 72 hrs by CCK-8 assay relative to control; format: functional; design: scale not given: the % may be the effect or the level left
[10] = tested on: NCI-H929; assay: Anti-proliferative activity against human NCI-H929 cells assessed as inhibition cell growth at 5 uM incubated for 72 hrs by CCK-8 assay relative to control; format: functional; design: scale not given: the % may be the effect or the level left

Compound: CC(=O)OC[C@H]1O[C@@H](NC(=O)c2ccc3c(c2)OCO3)C(=O)CC1SC1CCCC1 (stereo partly drawn)
- Activity [1]: inactive
- Activity [2]: inactive

Compound: CC(=O)OC[C@H]1O[C@@H](NC(=O)c2ccccc2)C(=O)CC1SCc1ccc(Cl)cc1 (stereo partly drawn)
- Activity [1]: Active
- Activity [2]: Active

Compound: COc1ccc(SC2CC(=O)[C@H](NC(=O)c3ccccc3)O[C@@H]2COC(C)=O)cc1OC (stereo partly drawn)
- Activity [1]: Active
- Activity [2]: Active

Compound: COc1ccc(CSC2CC(=O)[C@H](NC(=O)c3ccccc3)O[C@@H]2COC(C)=O)cc1 (stereo partly drawn)
- Activity [1]: Active
- Activity [2]: Active

- IC50 [4]: 1.46 µM
Compound: COc1ccc(SC2CC(=O)[C@H](NC(=O)c3ccc4c(c3)OCO4)O[C@@H]2COC(C)=O)cc1 (stereo partly drawn)
- IC50 [3]: 1.38 µM
- Activity [1]: Active
- Activity [2]: Active

- IC50 [4]: 1.6 µM
Compound: COc1ccc(C(=O)N[C@@H]2O[C@H](COC(C)=O)C(Sc3ccc(C)cc3)CC2=O)cc1 (stereo partly drawn)
- IC50 [3]: 4.57 µM
- Activity [1]: Active
- Activity [2]: Active

Compound: CC(=O)OC[C@H]1O[C@@H](NC(=O)c2ccccc2)C(=O)CC1Sc1ccc(C)cc1 (stereo partly drawn)
- Activity [1]: Active
- Activity [2]: Active

Compound: CC(=O)OC[C@H]1O[C@@H](NC(=O)c2ccccc2)C(=O)CC1SCCc1cnccn1 (stereo partly drawn)
- Activity [1]: Active
- Activity [2]: Active

Compound: COc1ccc(SC2CC(O)[C@H](NC(=O)c3ccc4c(c3)OCO4)O[C@@H]2CO)cc1OC (stereo partly drawn)
- Activity [5]: Active
- Activity [6]: Active

- IC50 [4]: 6.88 µM
Compound: O=C1C2C3C=CC(C4CC34)C2C(=O)N1c1ccc(Cc2ccncc2)cc1 (stereo not drawn)
- IC50 [3]: 5.45 µM
- Activity [1]: Active
- Activity [7]: Non-Toxic
- Activity [8]: Active

Compound: COc1ccc(SC2CC(O)[C@H](NC(=O)c3ccc4c(c3)OCO4)O[C@@H]2COC(C)=O)cc1OC (stereo partly drawn)
- Activity [9]: <20%
- Activity [10]: <20%

Compound: CC(=O)OC[C@H]1O[C@@H](NC(=O)c2ccccc2)C(=O)CC1Sc1ccc(Br)cc1 (stereo partly drawn)
- Activity [1]: Active
- Activity [2]: Active

Compound: COc1ccccc1SC1CC(=O)[C@H](NC(=O)c2ccc3c(c2)OCO3)O[C@@H]1COC(C)=O (stereo partly drawn)
- Activity [1]: inactive
- Activity [2]: inactive

- IC50 [4]: 3.03 µM
Compound: CC(=O)OC[C@H]1O[C@@H](NC(=O)c2ccc3c(c2)OCO3)C(=O)CC1SCc1ccco1 (stereo partly drawn)
- IC50 [3]: 2.71 µM
- Activity [1]: Active
- Activity [2]: Active

Compound: COc1ccc(SC2CC(=O)[C@H](NC(=O)c3ccco3)O[C@@H]2COC(C)=O)cc1 (stereo partly drawn)
- Activity [1]: Active
- Activity [2]: Active

Compound: CC(=O)OC[C@H]1O[C@@H](NC(=O)c2ccc3c(c2)OCO3)C(=O)CC1SCc1ccc(Cl)cc1 (stereo partly drawn)
- Activity [1]: Active
- Activity [2]: Active

Compound: CC(=O)OC[C@H]1O[C@@H](NC(=O)c2ccccc2)C(O)CC1Sc1ccc(F)cc1 (stereo partly drawn)
- Activity [9]: <20%
- Activity [10]: <20%

Compound: CC(=O)OC[C@H]1O[C@@H](NC(=O)c2ccccc2)C(=O)CC1SCc1ccc(C(C)(C)C)cc1 (stereo partly drawn)
- Activity [1]: Active
- Activity [2]: Active

Compound: CC(=O)OC[C@H]1O[C@@H](NC(=O)c2ccc3c(c2)OCO3)C(=O)CC1SCc1ccc(F)cc1 (stereo partly drawn)
- Activity [1]: Active
- Activity [2]: Active

Compound: COc1ccccc1SC1CC(=O)[C@H](NC(=O)c2ccccc2)O[C@@H]1COC(C)=O (stereo partly drawn)
- Activity [1]: Active
- Activity [2]: Active

Compound: CC(=O)OC[C@H]1O[C@@H](NC(=O)c2ccc3c(c2)OCO3)C(=O)CC1SCCc1cnccn1 (stereo partly drawn)
- Activity [1]: Active
- Activity [2]: Active

Compound: COc1ccc(SC2CC(O)[C@H](NC(=O)c3ccc4c(c3)OCO4)O[C@@H]2COC(C)=O)cc1 (stereo partly drawn)
- Activity [9]: <20%
- Activity [10]: <20%

Compound: COc1ccc(SC2CC(O)[C@H](NC(=O)c3ccc(OC)cc3)O[C@@H]2COC(C)=O)cc1 (stereo partly drawn)
- Activity [9]: <20%
- Activity [10]: <20%

- IC50 [4]: 2.68 µM
Compound: CC(=O)OC[C@H]1O[C@@H](NC(=O)c2ccccc2)C(=O)CC1Sc1ccc(Cl)cc1 (stereo partly drawn)
- IC50 [3]: 1.04 µM
- Activity [1]: Active
- Activity [2]: Active

Compound: CC(=O)OC[C@H]1O[C@@H](NC(=O)c2ccc3c(c2)OCO3)C(=O)CC1SCCNC(=O)OC(C)(C)C (stereo partly drawn)
- Activity [1]: Active
- Activity [2]: Active

Compound: COc1ccc(CSC2CC(O)[C@H](NC(=O)c3ccccc3)O[C@@H]2COC(C)=O)cc1 (stereo partly drawn)
- Activity [9]: <20%
- Activity [10]: <20%

Compound: CC(=O)OC[C@H]1O[C@@H](NC(=O)c2ccc3c(c2)OCO3)C(O)CC1Sc1cc(C)cc(C)c1 (stereo partly drawn)
- Activity [9]: <20%
- Activity [10]: <20%

Compound: CC(=O)OC[C@H]1O[C@@H](NC(=O)c2ccccc2)C(O)CC1SCc1ccc(F)cc1 (stereo partly drawn)
- Activity [9]: <20%
- Activity [10]: <20%

Compound: CC(=O)OC[C@H]1O[C@@H](NC(=O)c2ccccc2)C(=O)CC1Sc1ccc(F)cc1 (stereo partly drawn)
- Activity [1]: Active
- Activity [2]: Active

Compound: Cc1ccc(SC2CC(O)[C@H](NC(=O)c3ccc4c(c3)OCO4)O[C@@H]2CO)cc1 (stereo partly drawn)
- Activity [5]: Active
- Activity [6]: Active

Compound: CNc1ccc(SC2CC(O)[C@H](NC(=O)c3ccc4c(c3)OCO4)O[C@@H]2COC(C)=O)cc1 (stereo partly drawn)
- Activity [9]: <20%
- Activity [10]: <20%

Compound: CC(=O)OC[C@H]1O[C@@H](NC(=O)c2ccc3c(c2)OCO3)C(O)CC1SCc1ccc(F)cc1 (stereo partly drawn)
- Activity [9]: <20%
- Activity [10]: <20%

Compound: COc1ccc(SC2CC(O)[C@H](NC(=O)c3ccccc3)O[C@@H]2COC(C)=O)cc1 (stereo partly drawn)
- Activity [9]: <20%
- Activity [10]: <20%

- IC50 [4]: 1.97 µM
Compound: CC(=O)OC[C@H]1O[C@@H](NC(=O)c2ccc3c(c2)OCO3)C(=O)CC1Sc1cc(C)cc(C)c1 (stereo partly drawn)
- IC50 [3]: 2.29 µM
- Activity [1]: Active
- Activity [2]: Active

Compound: CC(=O)OC[C@H]1O[C@@H](NC(=O)c2ccccc2)C(=O)CC1SCc1ccc(F)cc1 (stereo partly drawn)
- Activity [1]: Active
- Activity [2]: Active

Compound: COc1ccc(CSC2CC(=O)[C@H](NC(=O)c3ccc4c(c3)OCO4)O[C@@H]2COC(C)=O)cc1 (stereo partly drawn)
- Activity [1]: Active
- Activity [2]: Active

Compound: COc1ccc(SC2CC(O)[C@H](NC(=O)c3ccc4c(c3)OCO4)O[C@@H]2CO)cc1 (stereo partly drawn)
- Activity [5]: Active
- Activity [6]: Active

Compound: CC(=O)OC[C@H]1O[C@@H](NC(=O)c2ccccc2)C(=O)CC1SCCCCCCO (stereo partly drawn)
- Activity [1]: Active
- Activity [2]: Active

- IC50 [4]: 0.85 µM
Compound: CC(=O)OC[C@H]1O[C@@H](NC(=O)c2ccc3c(c2)OCO3)C(=O)CC1Sc1ccc(C)cc1 (stereo partly drawn)
- IC50 [3]: 1.56 µM
- Activity [1]: Active
- Activity [2]: Active

Compound: CC(=O)OC[C@H]1O[C@@H](NC(=O)c2ccccc2)C(=O)CC1SCc1ccco1 (stereo partly drawn)
- Activity [1]: Active
- Activity [2]: Active

Compound: CC(=O)OC[C@H]1O[C@@H](NC(=O)c2ccccc2)C(O)CC1Sc1ccc(Br)cc1 (stereo partly drawn)
- Activity [9]: <20%
- Activity [10]: <20%

Compound: CC(=O)OC[C@H]1O[C@@H](NC(=O)c2ccc3c(c2)OCO3)C(=O)CC1SCc1ccc(C(C)(C)C)cc1 (stereo partly drawn)
- Activity [1]: Active
- Activity [2]: Active

Compound: CC(=O)OC[C@H]1O[C@@H](NC(=O)c2ccc3c(c2)OCO3)C(O)CC1SCc1ccc(Cl)cc1 (stereo partly drawn)
- Activity [9]: <20%
- Activity [10]: <20%

Compound: CC(=O)OC[C@H]1O[C@@H](NC(=O)c2ccc3c(c2)OCO3)C(=O)CC1SCCCCCCO (stereo partly drawn)
- Activity [1]: Active
- Activity [2]: Active

Compound: CC(=O)OC[C@H]1O[C@@H](NC(=O)c2ccccc2)C(O)CC1Sc1ccc(Cl)cc1 (stereo partly drawn)
- Activity [9]: <20%
- Activity [10]: <20%

Compound: COC1CC(=O)[C@H](NC(=O)c2ccc3c(c2)OCO3)O[C@@H]1COC(C)=O (stereo partly drawn)
- Activity [1]: inactive
- Activity [2]: inactive

Compound: CC(=O)OC[C@H]1O[C@@H](NC(=O)c2ccccc2)C(=O)CC1SCCNC(=O)OC(C)(C)C (stereo partly drawn)
- Activity [1]: Active
- Activity [2]: Active

Compound: CNc1ccc(SC2CC(=O)[C@H](NC(=O)c3ccc4c(c3)OCO4)O[C@@H]2COC(C)=O)cc1 (stereo partly drawn)
- Activity [1]: Active
- Activity [2]: Active

- IC50 [4]: 1.2 µM
Compound: COc1ccc(SC2CC(=O)[C@H](NC(=O)c3ccc(OC)cc3)O[C@@H]2COC(C)=O)cc1 (stereo partly drawn)
- IC50 [3]: 1.41 µM
- Activity [1]: Active
- Activity [2]: Active

Compound: CC(=O)OC[C@H]1O[C@@H](NC(=O)c2ccccc2)C(O)CC1Sc1ccc(C)cc1 (stereo partly drawn)
- Activity [9]: <20%
- Activity [10]: <20%

Compound: CC(=O)OC[C@H]1O[C@@H](NC(=O)c2ccc3c(c2)OCO3)C(O)CC1Sc1ccc(C)cc1 (stereo partly drawn)
- Activity [9]: <20%
- Activity [10]: <20%

Compound: CC(=O)OC[C@H]1O[C@@H](NC(=O)c2ccc3c(c2)OCO3)C(O)CC1SCc1ccco1 (stereo partly drawn)
- Activity [9]: <20%
- Activity [10]: <20%

Compound: COc1ccc(SC2CC(=O)[C@H](NC(=O)c3ccccc3)O[C@@H]2COC(C)=O)cc1 (stereo partly drawn)
- Activity [1]: Active
- Activity [2]: Active

— ChEMBL document CHEMBL5614386, “Design, synthesis, and biological evaluation of novel 1-amido-2-one-4-thio-deoxypyranose as potential antitumor agents for multiple myeloma” (Bioorg Med Chem, 2024)
